The values below are quoted from earlier work in US20110311631A1, “CONTROLLED RELEASE PHARMACEUTICAL COMPOSITION WITH RESISTANCE AGAINST THE INFLUENCE OF ETHANOL EMPLOYING A COATING COMPRISING A POLYMER MIXTURE AND EXCIPIENTS” (EVONIK RÖHM GMBH, priority 2009, published 2011).

The conditions of the data set: USP classification, between 15° C. and 25° C.

Counter-ions that a name gives are not always drawn. Like-named read-outs stand apart in the source and are kept apart here.

For the compound `NC(=O)N1c2ccccc2C=Cc2ccccc21` [Carbamazepine], the Solubility in ethanol entry was “Soluble (more than 10 to 30)” and the Solubility in water entry is “Practically insoluble (more than 10.000)”.

Turning to `COc1ccc([C@@H]2Sc3ccccc3N(CCN(C)C)C(=O)[C@@H]2OC(C)=O)cc1` [Diltiazem HCl], the Solubility in water result is “Freely soluble (from 1 to 10)”. The Solubility in ethanol entry (HCl) was “Sparingly soluble (more than 30 to 100)”. The Solubility in ethanol entry (listed as diltiazem, HCl) was “sparingly soluble”.

For the compound `COCCc1ccc(OCC(O)CNC(C)C)cc1` (centres unmarked) [Metoprolol succinate], the Solubility in ethanol result was “Sparingly soluble (more than 30 to 100)” and the Solubility in water entry was “Freely soluble (from 1 to 10)”. Further, the Solubility in ethanol entry (listed as metoprolol) was “sparingly soluble”.

As for `C=CCN1CC[C@]23c4c5ccc(O)c4O[C@H]2C(=O)CC[C@@]3(O)[C@H]1C5` [Naloxone], the Solubility in ethanol entry is “Slightly soluble (more than 100 to 1000)” and the Solubility in water result is recorded as “Soluble (more than 10 to 30)”. For the same compound, the Solubility in ethanol result (listed as naloxone) was “slightly soluble”.

On to `Cn1c(=O)c2[nH]cnc2n(C)c1=O` [Theophylline], for which the Solubility in ethanol entry was “Sparingly soluble (more than 30 to 100)” and the Solubility in water result is on record as “Slightly soluble (more than 100 to 1000)”. In addition, the Solubility in ethanol entry (listed as theophyllin) was “sparingly soluble”.
